Columns and labels:
prostate cells PC3 = assay: Trypan blue cell viability, PC3; type: cell-based; conditions: 10 μM, PC3, trypan blue exclusion, FIG. 1
Description: Cell viability was assessed by measuring the number of cells alive in samples of two different kind of prostate cells, respectively noted LNCAP and PC3, of breast cells noted MCF7, of colon cells noted HT29, of metastatic melanoma cell lines A375 and of melanoma cells from patients noted GIC. The measure of cell viability as performed by cell counting using the trypan blue exclusion method. Results were expressed as the percentage of cells alive relatively to the number of living cells in the presence of DMSO, which corresponds to the negative control associated to the 100% value. Cells were seeded in 6-well plates (60000 cells/well), depleted and incubated with compounds for the times indicated. Then cells were detached in the presence of 2000 of […] (Thermo) and 2 ml of RPMI 1640 Glutamax (Gibco) was added to the cell solution. 100 of this solution was stained for 1 minute with 100 of 0.4% trypan blue before counting with a Malassez chamber. The effect of compound on cell viability was studied on different types of cells. […] Cancer cells from prostate, breast, colon and melanoma A375 came from cell lines cultures. […] Results are expressed as percentage of cells alive relatively to the number of living cells in the presence of DMSO, which corresponds to the negative control associated to the 100% value. […]

[1] = test system: melanoma cells from patients GIC; assay: Trypan blue cell viability, patient melanoma cells GIC; type: cell-based, human; conditions: 10 μM, trypan blue exclusion, FIG. 1
Description: Cell viability was assessed by measuring the number of cells alive in samples of two different kind of prostate cells, respectively noted LNCAP and PC3, of breast cells noted MCF7, of colon cells noted HT29, of metastatic melanoma cell lines A375 and of melanoma cells from patients noted GIC. The measure of cell viability as performed by cell counting using the trypan blue exclusion method. Results were expressed as the percentage of cells alive relatively to the number of living cells in the presence of DMSO, which corresponds to the negative control associated to the 100% value. Patient melanoma cells were prepared from biopsy after digestion for 1-2 h with collagenase A (0.33 U/ml), dispase (0.85 U/ml) and Dnase I (144 U/ml) at 37° C. Large debris were removed by filtration through a […] cell strainer. Cells were seeded in 6-well plates (60000 cells/well), depleted and incubated with compounds for the times indicated. Then cells were detached in the presence of 2000 of […] (Thermo) and 2 ml of RPMI 1640 Glutamax (Gibco) was added to the cell solution. 100 of this solution was stained for 1 minute with 100 of 0.4% trypan blue before counting with a Malassez chamber. […] Results are expressed as percentage of cells alive relatively to the number of living cells in the presence of DMSO, which corresponds to the negative control associated to the 100% value. […]

normal human fibroblasts = assay: Trypan blue cell viability, normal fibroblasts; type: cell-based; conditions: 10 μM, FIG. 2
Description: Primary cell cultures of human normal melanocytes were prepared from human foreskin. In order to determine the effect of compound HA15 on cell viability of melanocytes and fibroblasts, 10 μM of ciglitazone or 10 μM of HA15 were added to the cell samples. The measure of cell viability was performed in the same way as for FIG. 1. Results are expressed as the percentage of living cells relatively to the number of living cells in the presence of DMSO, as for FIG. 1. Normal human fibroblasts prepared from foreskins of newborns were grown under 5% CO2 at 37° C. in DMEM medium supplemented with 10% FCS and penicillin/streptomycin (100 U/ml/[…]). Cells were seeded in 6-well plates (60000 cells/well), depleted and incubated with compounds for the times indicated. Then cells were detached in the presence of 2000 of […] (Thermo) and 2 ml of RPMI 1640 Glutamax (Gibco) was added to the cell solution. 100 of this solution was stained for 1 minute with 100 of 0.4% trypan blue before counting with a Malassez chamber. The effect of compound HA15 on cell viability of melanocytes and fibroblasts was studied, as illustrated by FIG. 2. Primary cell cultures of human normal melanocytes were prepared from human foreskin. In order to determine the effect of compound HA15 on cell viability of melanocytes and fibroblasts, 10 μM of ciglitazone or 10 μM of HA15 were added to the cell samples. […]

## CC(=O)Nc1nc(-c2cccc(NS(=O)(=O)c3cccc4c(N(C)C)cccc34)c2)cs1 [HA15, N-(4-(3-(5-(dimethylamino)naphthalene-1-sulfonamido)phenyl)thiazol-2-yl)acetamide]
Prostate cells PC3
  cell viability (cells alive relative to DMSO): viability greatly reduced
[1]
  cell viability (cells alive relative to DMSO): viability greatly reduced
Normal human fibroblasts
  cell viability of normal fibroblasts: not affected

Reference: patent publication US20150284347A1, “NEW BENZENE SULFONAMIDE THIAZOLE COMPOUNDS” (INSERM (INSTITUT NATIONAL DE LA SANTÉ ET DE LA RECHERCHE …, priority 2012, published 2015)
